In patent publication US9701681B2, “Fused ring heteroaryl compounds and their use as Trk inhibitors” (CMG Pharmaceutical Co., Ltd., priority 2014, dated 2017):

How the values were obtained:
KM12-luc cells = test: Cell proliferation assay (KM12); settings: 72 hours exposure, read-out: IC50 (nM) Cell-based assay (KM12)
Description: (§1) Doxorubicin was purchased from Sigma Aldrich (D1515). All compounds were diluted in DMSO (Sigma Aldrich, D2650). AlamarBlue® cell viability reagent was purchased from Thermo Scientific (88952). CellTiter 96® AQueous One Solution Cell proliferation assay was purchased from Promega. KM12-luc cells were obtained from JCRB (National Institute of Health Sciences, Tokyo, Japan). They were maintained in DMEM medium (GIB-11965-118) supplemented with 10% fetal bovine serum (Gibco, 16000-044) and MEM Non-Essential Amino Acids Solution (Thermo Scientific, 11140-050). TF-1 cells were obtained from ATCC. They were maintained in RPMI medium (GIB-A10491) supplemented with 10% fetal bovine serum (Gibco, 16000-044), GM-CSF (Thermo Scientific, 11140-050), and β-NGF (R&D systems). Trypsin/EDTA was purchased from Gibco (GIB-25300-054, 0.05%). 96-well plates were purchased from Corning Inc.
(§2) The proliferation assay was performed for Chemical Compounds 1-61 s in media supplemented with 10% FBS, using AlamarBlue® cell viability reagent or CellTiter 96® AQueous One Solution Cell proliferation assay kit. Cells were cultured in humidified 37° C. incubator with 5% CO2. To evaluate the antiproliferation activity of compounds, TF-1 cells were adjusted to GM-CSF free media (RPMI, 10% FBS, and 1% penicillin-streptomycin) for 16 hr and were seeded in 96-well plates at 30,000 cells/well with medium (RPMI, 10% FBS, 1% penicillin-streptomycin and 10 ng/ml human β-NGF). KM12-luc were seeded at 10,000 cells per well into 96-well plates. After overnight incubation, serial dilutions of compounds were added to triplicate wells, and cells were exposed for 72 hours. The final concentration of DMSO was adjusted to 0.5% in media. Quantitation of cell growth was assessed using two kinds of reagent. 20 ul of AlamarBlue® reagent in an amount equal to 10% of the culture volume was added to each well and were incubated in humidified 37° C. incubator with 5% CO2 for 2 hr. Otherwise, 20 ul of CellTiter 96® reagent was added to each well and were incubated in the same conditions as previously described. Data were plotted, and GI50 values were calculated using GraphPad software. Table 1 below includes the results of the assays.

TRK A, B & C kinase = molecular target: T1, TRK A, B & C kinase; test: TRK A, B & C kinase assay (ADP-Glo / HTRF KinEASE-TK); type: biochemical; settings: ADP-Glo or HTRF KinEASE-TK kit, isoform not specified, read-out: IC50 (nM) Enzymatic assay
T1 construct: fused on or other part: Carna's Trk kinases are usually GST-tagged cytoplasmic domains
Description: ADP-Glo assay kit was purchased from Promega. poly (Glu, Tyr), Magnesium sulfate, Bovine serum albumin (BSA) and dimethylsulfoxide(DMSO) were purchased from Sigma-Aldrich. Tris-HCl buffer was purchased from BD Gentest. HTRF KinEASE-TK kit was purchased from cisbio. TRK A, B & C kinase was purchased from Carna bioscience.
Kinase assay was performed for Chemical Compounds 1-61 using two methods using luminescent ADP-Glo assay kit (Promega) and HTRF KinEASE-TK assay kit (cisbio). The luminescent ADP-Glo assay kit (Promega) measures ADP formed from a kinase reaction. ADP converted into ATP, which is then converted into light by Ultra-Glo luciferase. The HTRF KinEASE-TK assay kit (cisbio) measures tyrosine kinase activities using one substrate and a universal detection system.
ADP-Glo Assay Kit (Promega)
The protein kinase assay was performed for Chemical Compounds 1-61 at […] concentrations are 0.4 ng/ul of TrKA, 0.5 ng/ul of TrKB and 3 ng/ul of TrKC, respectively), 5 μL of 1 ug/ul stock solution of poly(glu, Tyr), 5 μL of compounds or assay buffer, 5 μL of ATP (125 μM stock solution).
The assay was started by incubating the reaction mixture in a 96-well plate at 30° C. for 1 hr. After the incubation, the assay was terminated by the addition of 25 […] Detection Reagent was added, and the 96-well plate was shaken and then incubated for additional 30 min at ambient temperature. The 96-well reaction plate was then read on an Enspire plate reader. The IC50 values were derived through a curve fitting using SigmaPlot.
HTRF KinEASE-TK Assay Kit (Cisbio)
The HTRF KinEASE-TK assay was performed for Chemical Compounds 1-61 in 384-well low volume microplate (Greiner). The HTRF KinEASE-TK assay format involves the two steps. The first step is kinase reaction step. This kinase reaction step was performed at RT (room temperature) in final volume of 10 ul according to the following assay reaction recipe: 10 ul of kinase mixture (Kinase (2 ul)+ATP (2 ul)+Substrate (2 ul)+Compound (4 ul)). Kinase final concentrations were 0.3 ng/ul of TRKA, 0.1 ng/ul of TRKB, 0.03 ng/ul of TRKC, respectively. ATP final concentrations were 14.7 uM (TRKA), 4.77 uM (TRKB), 25.6 uM (TRKC) respectively. TK-substrate final concentration was 0.3 ng/ul. The mixtures exposed to Dose response concentration (DRC) compound from 0 to 100 nM for 40 min. During the kinase reaction step, the kinase reaction was started by the addition of ATP. Kinase phosphorylates the substrate.
The second is detection step. 10 ul of detection reagents (5 ul Sa-XL 665 in EDTA+5 ul TK Antibody-Eu in EDTA) was added to kinase mixture. This step was performed at room temperature for 1 hr. The detection reagent detects phosphorylated substrates.
Finally 384-well reaction plate was then read on FlexStation 3 machine. The fluorescence was measured at 620 nm (Cryptate) and 665 nm (XL665). A ratio is calculated ([…]/620)×10^4 for each well. The IC50 value was derived through a curve fitting using GraphPad Prism. Table 1 below includes the results of the assays.

TF-1 cells = test: Cell proliferation assay (TF-1); settings: 10 ng/ml human β-NGF, 72 hours exposure, read-out: IC50 (nM) Cell-based assay (TF-1)
Description: as §1, §2

Row | IC50 (TRK A, B & C kinase) [nM] | Compound | IC50 (KM12-luc cells) [nM] | IC50 (TF-1 cells) [nM]
1 | < 10 | CCc1nnc(-c2cnn3ccc(N4CCCC4c4cc(F)ccc4F)nc23)s1 (stereo not drawn) [Chemical Compound 4, 2-(5-(2-(2,5-difluorophenyl)pyrrolidin-1-yl)pyrazolo[1,5-a]pyrimidin-3-yl)-5-ethyl-1,3,4-thiadiazole] | < 100 | < 10
2 | < 10 | Fc1ccc(F)c(C2CCCN2c2ccn3ncc(-c4nnc(C5CC5)s4)c3n2)c1 (stereo not drawn) [Chemical Compound 8, 2-cyclopropyl-5-(5-(2-(2,5-difluorophenyl)pyrrolidin-1-yl)pyrazolo[1,5-a]pyrimidin-3-yl)-1,3,4-thiadiazole] | < 100 | < 10
3 | < 10 | CC(C)(C)c1nnc(-c2cnn3ccc(N4CCCC4c4cc(F)ccc4F)nc23)o1 (stereo not drawn) [Chemical Compound 9, 2-tert-butyl-5-(5-(2-(2,5-difluorophenyl)pyrrolidin-1-yl)pyrazolo[1,5-a]pyrimidin-3-yl)-1,3,4-oxadiazole] | < 10 | < 10
4 | < 10 | Cc1nnc(-c2cnn3ccc(N4CCCC4c4cncc(F)c4)nc23)s1 (stereo not drawn) [Chemical Compound 11, 2-(5-(2-(5-fluoropyridin-3-yl)pyrrolidin-1-yl)pyrazolo[1,5-a]pyrimidin-3-yl)-5-methyl-1,3,4-thiadiazole] | < 100 | < 100
5 | < 10 | Cc1nnc(-c2cnn3ccc(N4CCCC4c4cc(F)ccc4F)nc23)s1 (stereo not drawn) [Chemical Compound 2, 2-(5-(2-(2,5-difluorophenyl)pyrrolidin-1-yl)pyrazolo[1,5-a]pyrimidin-3-yl)-5-methyl-1,3,4-thiadiazole] | < 100 | < 10
6 | < 10 | CC(C)(C)c1nnc(-c2cnn3ccc(N4CCCC4c4cncc(F)c4)nc23)o1 (stereo not drawn) [Chemical Compound 16, 2-tert-butyl-5-(5-(2-(5-fluoropyridin-3-yl)pyrrolidin-1-yl)pyrazolo[1,5-a]pyrimidin-3-yl)-1,3,4-oxadiazole] | < 100 | < 100
7 | < 10 | O=C(/C=C/c1cnn2ccc(N3CCCC3c3cc(F)ccc3F)nc12)N1CC(O)C1 (stereo not drawn) [Chemical Compound 47, (E)-3-(5-(2-(2,5-difluorophenyl)pyrrolidin-1-yl)pyrazolo[1,5-a]pyrimidin-3-yl)-1-(3-hydroxyazetidin-1-yl)prop-2-en-1-one] | < 100 | < 100
8 | < 10 | O=C(/C=C/c1cnn2ccc(N3CCC[C@@H]3c3cc(F)ccc3F)nc12)NCCO [Chemical Compound 48, (R,E)-3-(5-(2-(2,5-difluorophenyl)pyrrolidin-1-yl)pyrazolo[1,5-a]pyrimidin-3-yl)-N-(2-hydroxyethyl)-acrylamide] | < 100 | < 100
9 | < 10 | O=C(/C=C/c1cnn2ccc(N3CCCC3c3cc(F)ccc3F)nc12)NC1CC1 (stereo not drawn) [Chemical Compound 43, (E)-N-cyclopropyl-3-(5-(2-(2,5-difluorophenyl)pyrrolidin-1-yl)pyrazolo[1,5-a]pyrimidin-3-yl)acrylamide] | < 100 | < 100
10 | < 10 | COCCNC(=O)/C=C/c1cnn2ccc(N3CCCC3c3cc(F)ccc3F)nc12 (stereo not drawn) [Chemical Compound 46, (E)-3-(5-(2-(2,5-difluorophenyl)pyrrolidin-1-yl)pyrazolo[1,5-a]pyrimidin-3-yl)-N-(2-methoxyethyl)-acrylamide] | < 100 | < 100
11 | < 10 | CC(C)NC(=O)/C=C/c1cnn2ccc(N3CCCC3c3cc(F)ccc3F)nc12 (stereo not drawn) [Chemical Compound 42, (E)-3-(5-(2-(2,5-difluorophenyl)-pyrrolidin-1-yl)pyrazolo[1,5-a]pyrimidin-3-yl)-N-isopropylacrylamide] | < 100 | < 100
12 | < 10 | CC(C)(C)NC(=O)/C=C/c1cnn2ccc(N3CCCC3c3cc(F)ccc3F)nc12 (stereo not drawn) [Chemical Compound 44, (E)-N-tert-butyl-3-(5-(2-(2,5-difluorophenyl)pyrrolidin-1-yl)pyrazolo-[1,5-a]pyrimidin-3-yl)acrylamide] | < 100 | < 100
13 | < 10 | Fc1ccc(F)c(C2CCCN2c2ccn3ncc(-c4cnco4)c3n2)c1 (stereo not drawn) [Chemical Compound 29, 5-(5-(2-(2,5-difluorophenyl)pyrrolidin-1-yl)pyrazolo[1,5-a]pyrimidin-3-yl)oxazole] | < 100 | < 100
14 | < 10 | O=C(/C=C/c1cnn2ccc(N3CCC[C@@H]3c3cc(F)ccc3F)nc12)N1CCOCC1 [Chemical Compound 49, (R,E)-3-(5-(2-(2,5-difluorophenyl)pyrrolidin-1-yl)pyrazolo[1,5-a]pyrimidin-3-yl)-1-morpholinoprop-2-en-1-one] | < 100 | < 10
15 | < 10 | CC1(O)CCN(C(=O)/C=C/c2cnn3ccc(N4CCC[C@@H]4c4cc(F)ccc4F)nc23)CC1 [Chemical Compound 58, (R,E)-3-(5-(2-(2,5-difluorophenyl)pyrrolidin-1-yl)pyrazolo[1,5-a]pyrimidin-3-yl)-1-(4-hydroxy-4-methylpiperidin-1-yl)prop-2-en-1-one] | < 10 | 
16 | < 10 | (R,E)-3-(5-(2-(2,5-difluorophenyl)pyrrolidin-1-yl)pyrazolo[1,5-a]pyrimidin-3-yl)-1-(4-hydroxypiperidin-1-yl)prop-2-en-1-one [Chemical Compound 57] | < 100 | 
17 | < 10 | (E)-3-(5-((R)-2-(2,5-difluorophenyl)pyrrolidin-1-yl)pyrazolo[1,5-a]pyrimidin-3-yl)-1-((R)-3-hydroxypyrrolidin-1-yl)prop-2-en-1-one [Chemical Compound 59] | < 100 | 
